± gives the uncertainty stated by the source.
Tests used:
Conditions in all cases: 18 h
HEK293T-Rex XBP1-RLuc [1] = assay: EC50 for XBP1-RLuc reporter activation
Procedure: (§1)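 Dose-response of hit compounds in HEK293T-Rex cells stably expressing ERSE-FLuc or XBP1-RLuc reporters, 18 hr treatment, 1536-well; luminescence normalised to 500 nM thapsigargin (100%) and DMSO (0%), fitted to give EC50 (M) and maximal activation; '>' marks EC50 above the top tested dose (~17 µM).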

HEK293T-Rex ERSE-FLuc [2] = assay: EC50 for ERSE-FLuc reporter activation
Procedure: as §1

HEK293T-Rex ERSE-FLuc [3] = assay: maximal ERSE-FLuc activation from dose-response fit, relative to thapsigargin (% of thapsigargin); higher = stronger activation
Procedure: as §1

HEK293T-Rex XBP1-RLuc [4] = assay: maximal XBP1-RLuc activation from dose-response fit, relative to thapsigargin (% of thapsigargin); higher = stronger activation
Procedure: as §1

SMILES	EC50 for XBP1-RLuc reporter activation (HEK293T-Rex XBP1-RLuc [1]) [µM]	EC50 for ERSE-FLuc reporter activation (HEK293T-Rex ERSE-FLuc [2]) [µM]	maximal ERSE-FLuc activation (HEK293T-Rex ERSE-FLuc [3])	maximal XBP1-RLuc activation (HEK293T-Rex XBP1-RLuc [4])
COc1ccc(-c2csc(N(CC3CCCO3)C(=O)CCl)n2)cc1 (stereo unspecified)	> 16.9	> 16.9	17.5 ± 3.4	10.3 ± 0.8
O=C1c2cc(O)ccc2-c2ccc(O)cc21	8.87	8.44	65.1 ± 18	73.2 ± 6.5
O=C(NC1CCCC1)c1cc(-c2cccs2)on1	> 16.9	13.4	57.6 ± 6.2	11.9 ± 3.2
Nc1ccc2nc(-c3ccc(Cl)cc3)[nH]c2c1	> 16.9	> 5.63	68.5 ± 6.7	35.3 ± 12
C(=N/Nc1nnc2c(n1)[nH]c1ccccc12)/c1c[nH]c2ccccc12	> 16.9	> 16.9	43.9 ± 1.3	26 ± 1.9
CC(C)CNC(=O)c1cc(-c2ccc(F)cc2)no1	> 16.9	> 16.9	20.8 ± 5.8	4.76 ± 1.8
Cc1ccc(O)c(NC(=O)c2cc(-c3ccc(F)cc3)on2)c1	> 16.9	> 16.9	31 ± 7.9	18.8 ± 3.2
Cn1cccc1/C=C1/SC(=Nc2ccccc2)NC1=O	> 16.7	> 16.7	40.8 ± 2.8	18.6 ± 6.5
Nc1cn(-c2ccccc2)nc1-c1cccs1	3.71	> 19.6	47.7 ± 4.1	156 ± 4.4
O=C(Nc1ccccc1O)c1cc2ccccc2o1	> 21	> 21	40.6 ± 8.2	20.1 ± 3.2
COc1ccccc1/C=C/C(=O)Nc1ccc(Cl)cn1	> 15.1	> 15.1	27.3 ± 3.7	8.83 ± 0.86
Cc1ccc(/C=N/NC(=O)c2cccc(Cl)c2)cc1	> 16.9	> 16.9	36.9 ± 7.8	3.19 ± 1.2
Cc1ccc(C(=O)Nc2sc3c(c2C#N)CCC3)cc1	> 16.7	> 16.7	17.6 ± 5	2.39 ± 0.61
COc1ccccc1/C=N/Nc1nc(-c2ccccc2)cc(=O)[nH]1	> 16.9	> 16.9	28.3 ± 0.49	5.2 ± 9.3
CC(C)CC(c1nnnn1C1CCCC1)N1CCN(C(=O)c2ccco2)CC1 (stereo unspecified)	> 16.9	> 16.9	14.3 ± 1.5	8.89 ± 0.66
N#Cc1c(NC(=O)c2ccc3ncsc3c2)sc2c1CCC2	> 16.6	> 16.6	22.2 ± 2.5	4.53 ± 1.1
Cc1cc(C)nc(Nc2nc(-c3ccc(O)c(O)c3)cs2)n1	14.1	> 16.9	39.7 ± 7.3	59.1 ± 1.4
COc1ccc(/C=C2\SC(=O)NC2=Nc2ccc(C)cc2)c(OC)c1	> 13	> 13	18.2 ± 3.2	3.27 ± 1.6
Nc1ccc2sc(-c3cc(Cl)c(N)c(Cl)c3)nc2c1	> 16.9	> 16.9	22 ± 6.1	14.9 ± 1.8
O=C1N/C(=C/c2ccc(O)cc2)C(=O)N1c1cccc(Cl)c1	3.04	3.19	85.8 ± 20	100 ± 3
CCOc1cccc(C(=O)Nc2ccc(-c3nc4ccc(C(=O)c5ccccc5)cc4[nH]3)cc2)c1	2.33	> 11.5	25.2 ± 5	66.4 ± 12
COc1ccc(-c2cnnc(N/N=C/c3ccc(O)c(O)c3)n2)cc1	16.8	14.7	54.5 ± 13	50.5 ± 3.9

SMILES	EC50 for XBP1-RLuc reporter activation (HEK293T-Rex XBP1-RLuc [1]) [µM]	EC50 for ERSE-FLuc reporter activation (HEK293T-Rex ERSE-FLuc [2]) [µM]	maximal ERSE-FLuc activation (HEK293T-Rex ERSE-FLuc [3])	maximal XBP1-RLuc activation (HEK293T-Rex XBP1-RLuc [4])
COC(=O)c1ccc2c(COC(C)=O)c(OC(C)=O)ccc2c1COC(C)=O	> 16.9	14.7	70.9 ± 16	19.2 ± 4.8
O=C1NC(=Nc2ccc(F)cc2)S/C1=C\c1ccc(O)c(O)c1	12.4	6.92	85.9 ± 7.7	55.3 ± 2.5
C=CCNC(=O)c1cc(-c2ccccc2)on1	> 16.9	7.45	99.6 ± 17	10.7 ± 4.1
Nc1ccccc1NC(=O)c1ccc(C(=O)Nc2ccccc2N)cc1	> 9.59	7.17	65.8 ± 3.4	16.1 ± 6.4
Cc1ccc2nc(/C(C#N)=C/c3ccc(O)cc3)[nH]c2c1	> 16.9	> 16.9	35.3 ± 5.6	21.3 ± 3.4
O=C(Nc1ccc2nc(NC(=O)C3CCCCC3)sc2c1)C1CCCCC1	> 10.2	> 10.2	13.9 ± 2.4	5.73 ± 2.7
N#Cc1c(NC(=O)c2ccc(Br)cc2)sc2c1CCCC2	> 12.7	> 12.7	17.3 ± 2.2	1.87 ± 3.4
COc1ccccc1-c1nnc(Nc2nc3c(OC)cccc3s2)o1	> 16.9	> 16.9	32.7 ± 3	12.5 ± 1
Cc1ccc(O)c(NC(=O)c2cc(-c3cccnc3)on2)c1	> 16.9	10.8	94.4 ± 10	27.9 ± 4.9
O=C(CCCN1CCC2(CC1)C(=O)NCN2c1ccccc1)c1ccc(F)cc1	3.23	7.34	157 ± 16	186 ± 12
Cc1cnc(NC(=O)c2sc3nc4c(C)cccc4cc3c2N)s1	6.88	11.5	58.9 ± 6.1	96.9 ± 3.6
Oc1ccccc1/C=N\Nc1nc2ccccc2o1	> 17.3	> 17.3	12.4 ± 3.9	19.8 ± 1.3
O=[N+]([O-])c1ccccc1N/N=C/c1ccc(O)c(O)c1	> 16.9	> 16.9	38 ± 11	43.4 ± 3.5
Oc1ccc(-c2cn3ccccc3n2)cc1O	> 22.5	18.4	51.7 ± 5.5	38.7 ± 3.2
COc1cccc(/C=N/NC(=O)c2n[nH]c3c2CCCC3)c1	> 16.9	> 16.9	29.6 ± 6.7	3.95 ± 0.69
O=C1N/C(=C/c2ccc(O)cc2)C(=O)N1c1ccccc1	4.36	3.42	110 ± 11	76 ± 3.7
O=C(/C=C/c1ccccc1)Nc1ccc(Br)cn1	> 13.7	> 13.7	26.2 ± 3.8	4.36 ± 3.2
COc1ccc(/C(C)=N/OC/C(O)=C(\C#N)c2nc3ccccc3[nH]2)cc1OC	> 17.2	> 17.2	5.39 ± 2.3	3.33 ± 0.88
O=C(/C=C/c1ccccc1)Nc1ccc(Cl)cn1	> 18.6	> 18.6	22.1 ± 7	2.19 ± 0.65
COc1ccc(-n2nnnc2SCC(N)=O)c(OC)c1	> 16.9	> 16.9	11.9 ± 3.1	1.34 ± 2.6
Cc1ccc2nc(NC(=O)c3cccc4ccccc34)sc2c1	> 15.1	> 15.1	38.8 ± 5.3	11.2 ± 1.2
Cc1ccc(O)c(N/C=C/C(=O)c2cccs2)c1	10	5.29	225 ± 15	56.5 ± 2.8

Reference: the supplement of paper PMC4954754
